# Measured values from patent US20100298141A1, “SUBSTITUTED PYRIDINE N-OXIDE HERBICIDES” (E. I. DU PONT DE NEMOURS AND COMPANY, priority 2007, published 2010).
# How the values were obtained:
# soybean = test: Test C pre-/postemergence test; assay type: in vivo, Glycine max; conditions: for Plant response rating, Soybean: 31 g ai/ha, scale 0 to 100 (0 no effect, 100 complete control)
# Procedure, shortened: (§1)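 Compounds in a non-phytotoxic solvent with surfactant applied preemergence to seeded pots and, at the same time, postemergence to plants 2–18 cm tall (1- to 4-leaf stage). Paddy tests: pots flooded to 3 cm, compound applied into the water, depth held throughout.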
# morningglory [1] = test: Test A pre-/postemergence greenhouse test; assay type: in vivo, Ipomoea spp.; conditions: for Plant response rating, Morningglory: 0 to 100 scale where 0 is no effect and 100 is complete control; for Morningglory plant response rating: 0 to 100 scale
# Procedure, shortened: (§2)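 Untreated controls served as the reference for visual injury ratings taken about ten days after spraying. The non-phytotoxic solvent/surfactant formulation was applied preemergence to seeded loam and sand and postemergence to plants two to ten cm high.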
# bermudagrass = test: Test C pre-/postemergence test; assay type: in vivo, Cynodon dactylon; conditions: for Plant response rating, Bermudagrass: 31 g ai/ha
# Procedure, shortened: as §1
# corn = test: Test A pre-/postemergence greenhouse test; assay type: in vivo, Zea mays; conditions: for Plant response rating, Corn: 0 to 100 scale where 0 is no effect and 100 is complete control; for Corn plant response rating: 0 to 100 scale
# Procedure, shortened: as §2
# pigweed = test: Test C pre-/postemergence test; assay type: in vivo, Amaranthus retroflexus; conditions: for Plant response rating, Pigweed: 31 g ai/ha, scale 0 to 100 (0 no effect, 100 complete control)
# Procedure, shortened: as §1
# wheat [2] = test: Test A pre-/postemergence greenhouse test; assay type: in vivo, Triticum aestivum; conditions: for Plant response rating, Wheat: 0 to 100 scale where 0 is no effect and 100 is complete control; for Wheat plant response rating: 0 to 100 scale
# Procedure, shortened: as §2
# crabgrass = test: Test A pre-/postemergence greenhouse test; assay type: in vivo, Digitaria sanguinalis; conditions: for Plant response rating, Crabgrass, Large: 0 to 100 scale where 0 is no effect and 100 is complete control; for Crabgrass, Large plant response rating: 0 to 100 scale
# Procedure, shortened: as §2
# morningglory [3] = test: Test C pre-/postemergence test; assay type: in vivo, Ipomoea coccinea; conditions: for Plant response rating, Morningglory: 31 g ai/ha, scale 0 to 100 (0 no effect, 100 complete control)
# Procedure, shortened: as §1
# wheat [4] = test: Test C pre-/postemergence test; assay type: in vivo, Triticum aestivum; conditions: for Plant response rating, Wheat: 31 g ai/ha, scale 0 to 100 (0 no effect, 100 complete control)
# Procedure, shortened: as §1
# catchweed bedstraw = test: Test C pre-/postemergence test; assay type: in vivo, Galium aparine; conditions: for Plant response rating, Galium: 31 g ai/ha, scale 0 to 100 (0 no effect, 100 complete control)
# Procedure, shortened: as §1
# umbrella sedge = test: Test C flooded paddy test; assay type: in vivo, Cyperus difformis; conditions: Flood
# Procedure, shortened: (§3)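 Pots were flooded to 3 cm above the soil surface at treatment, compound applied directly to the paddy water, and that depth held throughout. Plants were kept in a greenhouse for 13 to 15 days, then visually rated against untreated controls.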
# giant foxtail = test: Test A pre-/postemergence greenhouse test; assay type: in vivo, Setaria faberi; conditions: for Plant response rating, Foxtail, Giant: 0 to 100 scale where 0 is no effect and 100 is complete control; for Foxtail, Giant plant response rating: 0 to 100 scale
# Procedure, shortened: as §2
# Italian ryegrass = test: Test C pre-/postemergence test; assay type: in vivo, Lolium multiflorum; conditions: for Plant response rating, Ryegrass, Italian: 31 g ai/ha, scale 0 to 100 (0 no effect, 100 complete control)
# Procedure, shortened: as §1
# [5] = test system: common (oilseed) sunflower; test: Test C pre-/postemergence test; assay type: in vivo, Helianthus annuus; conditions: for Plant response rating, Sunflower: 31 g ai/ha, scale 0 to 100 (0 no effect, 100 complete control)
# Procedure, shortened: as §1
# yellow nutsedge = test: Test C pre-/postemergence test; assay type: in vivo, Cyperus esculentus; conditions: for Plant response rating, Nutsedge, Yellow: 31 g ai/ha, scale 0 to 100 (0 no effect, 100 complete control)
# Procedure, shortened: as §1
# barnyardgrass = test: Test C flooded paddy test; assay type: in vivo, Echinochloa crus-galli; conditions: Flood
# Procedure, shortened: as §3
# Goosegrass = test: Test C pre-/postemergence test; assay type: in vivo, Eleusin indica; conditions: for Plant response rating, Goosegrass: 31 g ai/ha, scale 0 to 100 (0 no effect, 100 complete control)
# Procedure, shortened: as §1
# [6] = 62 g ai/ha, Preemergence, scale 0 to 100
# [7] = 125 g ai/ha, preemergence, scale 0 (no effect) to 100 (complete control)
# [8] = preemergence, 250 g ai/ha, scale 0 (no effect) to 100 (complete control)
# [9] = Postemergence, 500 g ai/ha, 0 is no effect, 100 is complete control
# [10] = Preemergence, 125 g ai/ha, 0 no effect, 100 complete control
# [11] = 62 g ai/ha, Preemergence, scale 0 to 100 (0 no effect, 100 complete control)
# [12] = Preemergence, scale 0 to 100 (0 no effect, 100 complete control)
# [13] = Preemergence, 500 g ai/ha, 0 no effect, 100 complete control
# [14] = 62 g ai/ha, scale 0 to 100 (0 no effect, 100 complete control)
# [15] = 250 g ai/ha, scale 0 to 100, 0 no effect, 100 complete control, 13 to 15 days
compound,measurement,setting,value
Cc1cc[n+]([O-])c(S(=O)(=O)Cc2c(C(F)(F)F)nn(C)c2OC(C)C(F)(F)F)c1 (stereo not shown) [Compound 96],Soybean plant response rating,soybean; [6],20
same,Soybean plant response rating,soybean; [7],40
same,"Plant response rating, Soybean",soybean; Preemergence,20
same,Soybean plant response rating,soybean; [8],70
same,"Plant response rating, Morningglory","morningglory [1]; Postemergence, 125 g ai/ha",10
same,Morningglory plant response rating,morningglory [1]; [9],70
same,Morningglory plant response rating,morningglory [1]; [10],20
same,"Plant response rating, Morningglory","morningglory [1]; Preemergence, 500 g ai/ha",80
same,Bermudagrass plant response rating,bermudagrass; [11],100
same,Bermudagrass plant response rating,bermudagrass; [7],100
same,"Plant response rating, Bermudagrass",bermudagrass; [12],85
same,Bermudagrass plant response rating,bermudagrass; [8],100
same,"Plant response rating, Corn","corn; Postemergence, 125 g ai/ha",20
same,Corn plant response rating,corn; [10],0
same,"Plant response rating, Corn","corn; Preemergence, 500 g ai/ha",50
same,Pigweed plant response rating,pigweed; [6],70
same,Pigweed plant response rating,pigweed; [7],70
same,"Plant response rating, Pigweed",pigweed; Preemergence,10
same,Pigweed plant response rating,pigweed; [8],100
same,"Plant response rating, Wheat","wheat [2]; Postemergence, 125 g ai/ha",50
same,Wheat plant response rating,wheat [2]; [9],70
same,Wheat plant response rating,wheat [2]; [10],20
same,Wheat plant response rating,wheat [2]; [13],80
same,"Plant response rating, Crabgrass, Large","crabgrass; Postemergence, 125 g ai/ha",40
same,"Crabgrass, Large plant response rating",crabgrass; [9],90
same,"Crabgrass, Large plant response rating",crabgrass; [10],80
same,"Plant response rating, Crabgrass, Large","crabgrass; Preemergence, 500 g ai/ha",100
same,Morningglory plant response rating,morningglory [3]; [6],70
same,Morningglory plant response rating,morningglory [3]; [7],95
same,"Plant response rating, Morningglory",morningglory [3]; Preemergence,0
same,Morningglory plant response rating,morningglory [3]; [8],100
same,Wheat plant response rating,wheat [4]; [6],0
same,Wheat plant response rating,wheat [4]; [7],45
same,"Plant response rating, Wheat",wheat [4]; Preemergence,0
same,Wheat plant response rating,wheat [4]; [8],45
same,Galium plant response rating,catchweed bedstraw; [6],80
same,Galium plant response rating,catchweed bedstraw; [7],98
same,"Plant response rating, Galium",catchweed bedstraw; Preemergence,0
same,Galium plant response rating,catchweed bedstraw; [8],100
same,"Plant response rating, Sedge, Umbrella",umbrella sedge; [14],0
same,"Plant response rating, Sedge, Umbrella",umbrella sedge; [15],75
same,"Plant response rating, Foxtail, Giant","giant foxtail; Postemergence, 125 g ai/ha",70
same,"Foxtail, Giant plant response rating",giant foxtail; [9],80
same,"Foxtail, Giant plant response rating",giant foxtail; [10],100
same,"Plant response rating, Foxtail, Giant","giant foxtail; Preemergence, 500 g ai/ha",100
same,"Ryegrass, Italian plant response rating",Italian ryegrass; [6],98
same,"Ryegrass, Italian plant response rating",Italian ryegrass; [7],100
same,"Plant response rating, Ryegrass, Italian",Italian ryegrass; Preemergence,60
same,"Ryegrass, Italian plant response rating",Italian ryegrass; [8],100
same,Sunflower plant response rating,[5]; [6],0
same,Sunflower plant response rating,[5]; [7],0
same,"Plant response rating, Sunflower",[5]; Preemergence,0
same,Sunflower plant response rating,[5]; [8],30
same,"Nutsedge, Yellow plant response rating",yellow nutsedge; [6],80
same,"Nutsedge, Yellow plant response rating",yellow nutsedge; [7],95
same,"Plant response rating, Nutsedge, Yellow",yellow nutsedge; Preemergence,40
same,"Nutsedge, Yellow plant response rating",yellow nutsedge; [8],95
same,"Plant response rating, Barnyardgrass",barnyardgrass; [14],0
same,"Plant response rating, Barnyardgrass",barnyardgrass; [15],0
same,Goosegrass plant response rating,Goosegrass; [6],100
same,Goosegrass plant response rating,Goosegrass; [7],100
same,"Plant response rating, Goosegrass",Goosegrass; Preemergence,95
same,Goosegrass plant response rating,Goosegrass; [8],100
Cc1cc[n+]([O-])c(S(=O)(=O)Cc2c(C(F)(F)C(F)(F)F)nn(C)c2OCC(F)(F)F)c1 [Compound 99],Soybean plant response rating,soybean; [6],25
same,Soybean plant response rating,soybean; [7],30
same,"Plant response rating, Soybean",soybean; Preemergence,0
same,Soybean plant response rating,soybean; [8],98
same,"Plant response rating, Morningglory","morningglory [1]; Postemergence, 125 g ai/ha",40
same,Morningglory plant response rating,morningglory [1]; [9],50
same,Morningglory plant response rating,morningglory [1]; [10],50
same,Morningglory plant response rating,morningglory [1]; [13],100
same,Bermudagrass plant response rating,bermudagrass; [11],100
same,Bermudagrass plant response rating,bermudagrass; [7],100
same,"Plant response rating, Bermudagrass",bermudagrass; [12],85
same,Bermudagrass plant response rating,bermudagrass; [8],100
same,"Plant response rating, Corn","corn; Postemergence, 125 g ai/ha",40
same,Corn plant response rating,corn; [9],60
same,Corn plant response rating,corn; [10],0
same,Corn plant response rating,corn; [13],30
same,Pigweed plant response rating,pigweed; [6],100
same,Pigweed plant response rating,pigweed; [7],100
same,"Plant response rating, Pigweed",pigweed; Preemergence,100
same,Pigweed plant response rating,pigweed; [8],100
same,"Plant response rating, Wheat","wheat [2]; Postemergence, 125 g ai/ha",50
same,Wheat plant response rating,wheat [2]; [9],70
same,Wheat plant response rating,wheat [2]; [10],50
same,Wheat plant response rating,wheat [2]; [13],90
same,"Plant response rating, Crabgrass, Large","crabgrass; Postemergence, 125 g ai/ha",60
same,"Crabgrass, Large plant response rating",crabgrass; [9],80
same,"Crabgrass, Large plant response rating",crabgrass; [10],80
same,"Crabgrass, Large plant response rating",crabgrass; [13],100
same,Morningglory plant response rating,morningglory [3]; [6],100
same,Morningglory plant response rating,morningglory [3]; [7],100
same,"Plant response rating, Morningglory",morningglory [3]; Preemergence,65
same,Morningglory plant response rating,morningglory [3]; [8],100
same,Wheat plant response rating,wheat [4]; [6],55
same,Wheat plant response rating,wheat [4]; [7],55
same,"Plant response rating, Wheat",wheat [4]; Preemergence,25
same,Wheat plant response rating,wheat [4]; [8],95
same,Galium plant response rating,catchweed bedstraw; [6],100
same,Galium plant response rating,catchweed bedstraw; [7],100
same,"Plant response rating, Galium",catchweed bedstraw; Preemergence,100
same,Galium plant response rating,catchweed bedstraw; [8],100
same,"Plant response rating, Sedge, Umbrella",umbrella sedge; [14],0
same,"Plant response rating, Sedge, Umbrella",umbrella sedge; [15],65
same,"Plant response rating, Foxtail, Giant","giant foxtail; Postemergence, 125 g ai/ha",70
same,"Foxtail, Giant plant response rating",giant foxtail; [9],80
same,"Foxtail, Giant plant response rating",giant foxtail; [10],90
same,"Foxtail, Giant plant response rating",giant foxtail; [13],100
same,"Ryegrass, Italian plant response rating",Italian ryegrass; [6],70
same,"Ryegrass, Italian plant response rating",Italian ryegrass; [7],75
same,"Plant response rating, Ryegrass, Italian",Italian ryegrass; Preemergence,70
same,"Ryegrass, Italian plant response rating",Italian ryegrass; [8],100
same,Sunflower plant response rating,[5]; [6],30
same,Sunflower plant response rating,[5]; [7],30
same,"Plant response rating, Sunflower",[5]; Preemergence,30
same,Sunflower plant response rating,[5]; [8],40
same,"Nutsedge, Yellow plant response rating",yellow nutsedge; [6],60
same,"Nutsedge, Yellow plant response rating",yellow nutsedge; [7],60
same,"Plant response rating, Nutsedge, Yellow",yellow nutsedge; Preemergence,0
same,"Nutsedge, Yellow plant response rating",yellow nutsedge; [8],80
same,"Plant response rating, Barnyardgrass",barnyardgrass; [14],0
same,"Plant response rating, Barnyardgrass",barnyardgrass; [15],20
same,Goosegrass plant response rating,Goosegrass; [6],95
same,Goosegrass plant response rating,Goosegrass; [7],100
same,"Plant response rating, Goosegrass",Goosegrass; Preemergence,85
same,Goosegrass plant response rating,Goosegrass; [8],100
